PMC7036909, “Discovery of Selective SIRT2 Inhibitors as Therapeutic Agents in B-Cell Lymphoma and Other Malignancies” (Molecules, 2020)
Values joined by “and” are separate entries in the source; they are usually repeats but may differ in a detail not shown here. Equal values may be shown once.

How the values were obtained:
[1] = tested on: OCI-Ly8-LAM-53 (OCI, DLBCL) cells; experiment: Cell viability (CellTiter-Glo), OCI; assay type: cell-based; details: 72 h, cellular ATP; read-out: OCI LC50
Description: (§1) With selective SIRT2 inhibitors in hand, we proceeded to evaluate cytotoxicity of our compounds in Daudi, Raji (Burkitt lymphoma) and OCI-Ly8-LAM-53 (OCI, a representative of several Diffuse Large B-Cell Lymphoma lines; DLBCL) cell lines. Briefly, cells were plated in 96-well plates and treated with inhibitors at desired concentrations for 72 h. Cellular viability was determined by measuring the amount of cellular ATP using CellTiter-Glo assay kit (Promega) and normalized against DMSO-treated controls. […] Selected inhibitors were further evaluated in an expanded panel of cancer cell lines including breast cancer (MCF-7 and MDA-MB231), prostate cancer (PC-3) and glioblastoma multiforme (U-251). […] However, the trend in potency as a function of the structure is consistent with the results obtained against lymphoma cell lines. […] . Cell lines were obtained from ATCC (Manassas, VA, USA) and were grown under standard conditions as recommended. For viability assays, 3000 cells per well were dispensed into 96-well plates and treated with test compounds (final DMSO concentration 0.25%). Cells were incubated with test compounds (or DMSO controls) for 72 h or 5 days as noted at 37 °C in 5% CO2 and viability was determined using the CellTiter-Glo Assay (Promega Corp.) according to manufacturer’s instructions.

SIRT1 [2] = molecular target: T1, SIRT1 (Homo sapiens, UniProt Q96EB6); set-up: purchased Cayman Chemical; details: cited from earlier work
T1 sequence (Q96EB6 1-747): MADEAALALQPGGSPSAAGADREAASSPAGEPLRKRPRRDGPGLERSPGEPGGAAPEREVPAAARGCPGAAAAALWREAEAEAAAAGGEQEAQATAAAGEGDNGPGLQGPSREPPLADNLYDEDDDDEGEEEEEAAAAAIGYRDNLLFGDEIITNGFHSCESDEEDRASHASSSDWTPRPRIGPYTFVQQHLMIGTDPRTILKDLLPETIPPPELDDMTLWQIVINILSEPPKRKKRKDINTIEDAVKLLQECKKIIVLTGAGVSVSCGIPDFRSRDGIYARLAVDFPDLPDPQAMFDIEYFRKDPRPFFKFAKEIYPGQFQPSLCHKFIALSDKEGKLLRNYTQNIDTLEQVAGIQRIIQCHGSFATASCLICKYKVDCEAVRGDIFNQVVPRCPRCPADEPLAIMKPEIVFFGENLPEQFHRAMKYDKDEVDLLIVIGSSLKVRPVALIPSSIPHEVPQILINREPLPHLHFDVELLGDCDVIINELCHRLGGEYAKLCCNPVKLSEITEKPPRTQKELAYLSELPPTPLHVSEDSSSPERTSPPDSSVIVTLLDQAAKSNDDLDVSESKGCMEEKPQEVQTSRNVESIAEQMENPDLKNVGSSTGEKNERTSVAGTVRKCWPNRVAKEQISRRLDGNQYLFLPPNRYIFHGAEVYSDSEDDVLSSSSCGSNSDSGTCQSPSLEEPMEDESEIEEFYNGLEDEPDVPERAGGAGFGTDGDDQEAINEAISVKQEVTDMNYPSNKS

[3] = tested on: Daudi (Burkitt lymphoma) cells; experiment: Cell viability (CellTiter-Glo), Daudi; assay type: cell-based; details: Homo sapiens, 72 h, cellular ATP, read-out: Daudi LC50
Description: as §1

[4] = tested on: Raji (Burkitt lymphoma) cells; experiment: Cell viability (CellTiter-Glo), Raji; assay type: cell-based; details: Homo sapiens, 72 h, cellular ATP, read-out: Raji LC50
Description: as §1

SIRT1 [5] = molecular target: T1, SIRT1; experiment: SIRT-Glo enzyme inhibition assay, SIRT1; details: for inhibition at 50 µM: read-out: SIRT1 percentage inhibition at 50 µM compound, 50 µM compound
Description: (§2) SIRT1, SIRT2, and SIRT3 were purchased from Cayman Chemical. Enzyme inhibition assays were performed in 96-well black plates using the SIRT-Glo Assay (Promega Corp.) according to the manufacturer’s instructions. Compounds were dissolved in 100% DMSO and to make 5- or 10-mM stock solutions. For initial enzyme inhibition tests, 50 µM of inhibitory concentration was used. […] IC50 values were determined in triplicate and reported values are averages of two independent experiments.

SIRT2 = molecular target: T2, SIRT2 (Homo sapiens, UniProt Q8IXJ6); experiment: SIRT-Glo enzyme inhibition assay, SIRT2; details: for IC50: SIRT2 IC50; for inhibition at 50 µM: read-out: SIRT2 percentage inhibition at 50 µM compound, 50 µM compound
T2 sequence (Q8IXJ6 1-389): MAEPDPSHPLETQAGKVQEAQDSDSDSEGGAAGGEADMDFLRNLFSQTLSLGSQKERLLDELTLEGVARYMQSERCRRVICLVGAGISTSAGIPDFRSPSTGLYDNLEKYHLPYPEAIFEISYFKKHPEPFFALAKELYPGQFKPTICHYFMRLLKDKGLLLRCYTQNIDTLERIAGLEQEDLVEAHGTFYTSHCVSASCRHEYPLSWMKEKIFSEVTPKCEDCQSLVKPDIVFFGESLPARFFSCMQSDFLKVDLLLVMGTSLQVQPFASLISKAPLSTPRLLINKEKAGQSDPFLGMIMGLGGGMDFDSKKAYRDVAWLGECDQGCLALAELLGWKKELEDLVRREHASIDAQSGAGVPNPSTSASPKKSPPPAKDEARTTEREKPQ
Description: as §2

SIRT3 = molecular target: T3, SIRT3 (Homo sapiens, UniProt Q9NTG7); experiment: SIRT-Glo enzyme inhibition assay, SIRT3; details: for inhibition at 50 µM: read-out: SIRT3 percentage inhibition at 50 µM compound, 50 µM compound
T3 sequence (Q9NTG7 1-399): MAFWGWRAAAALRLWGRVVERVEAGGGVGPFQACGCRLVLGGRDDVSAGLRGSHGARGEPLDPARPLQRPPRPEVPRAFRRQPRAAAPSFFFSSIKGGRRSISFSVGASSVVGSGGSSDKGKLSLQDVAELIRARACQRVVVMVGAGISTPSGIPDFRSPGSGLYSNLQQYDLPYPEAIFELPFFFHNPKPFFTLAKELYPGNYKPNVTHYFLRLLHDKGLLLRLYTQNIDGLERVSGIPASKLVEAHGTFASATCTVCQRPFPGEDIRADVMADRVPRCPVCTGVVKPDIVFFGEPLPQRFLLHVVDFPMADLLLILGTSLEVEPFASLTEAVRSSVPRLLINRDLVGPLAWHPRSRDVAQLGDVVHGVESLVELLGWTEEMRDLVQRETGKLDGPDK
Description: as §2

[6] = tested on: MCF-7 breast cancer cells; experiment: Cell viability (CellTiter-Glo), MCF-7; assay type: cell-based; details: Homo sapiens, MCF7; cellular ATP; read-out: MCF7 LC50
Description: as §1

[7] = tested on: MDA-MB231 breast cancer cells; experiment: Cell viability (CellTiter-Glo), MDA-MB231; assay type: cell-based; details: Homo sapiens, MDA-MB-231; cellular ATP; read-out: MDA-MB231 LC50
Description: as §1

[8] = tested on: PC-3 prostate cancer cells; experiment: Cell viability (CellTiter-Glo), PC-3; assay type: cell-based; details: cellular ATP; read-out: PC3 LC50
Description: as §1

[9] = tested on: U-251 glioblastoma multiforme cells; experiment: Cell viability (CellTiter-Glo), U-251; assay type: cell-based; details: Homo sapiens, cellular ATP, read-out: U251 LC50
Description: as §1

OCI DLBCL cells = experiment: Annexin V staining assay; details: 5 µM
Description: OCI DLBCL cells were treated with 56 for 24 h. Cells were lysed and analyzed by western blot assay for cleaved poly-ADP-ribose polymerase (PARP), a well-accepted apoptosis marker [42] (Abcam, Cambridge, UK).

SMILES | CC50 [1] [µM] | IC50 (SIRT1 [2]) [µM] | CC50 [3] [µM] | CC50 [4] [µM] | inhibition at 50 µM (SIRT1 [5]) [%] | IC50 (SIRT2) | inhibition at 50 µM (SIRT2) [%] | inhibition at 50 µM (SIRT3) [%] | CC50 [6] [µM] | CC50 [7] [µM] | CC50 [8] [µM] | CC50 [9] [µM] | selectivity for SIRT2 over SIRT1 (SIRT1 [5]; SIRT2 versus SIRT1) [fold] | selectivity for SIRT2 over SIRT3 (SIRT3; SIRT2 versus SIRT3) [fold] | Q1 (necrotic cell death) cell population (OCI DLBCL cells) [%] | Q2 (apoptotic cells) cell population (OCI DLBCL cells) [%] | Q3 cell population (OCI DLBCL cells) [%] | Q4 cell population (OCI DLBCL cells) [%]
N#C/C(=C\c1ccc(-c2cc(Cl)ccc2Cl)o1)C(=O)Nc1cccc2ncccc12 [AGK2, reference compound] | 73.2 | > 50 |  |  |  |  |  |  |  |  |  |  |  |  |  |  |  | 
NC(=O)C(Cc1c(O)ccc2cc(Br)ccc12)C(=O)c1ccc(Cl)cc1 (stereo not shown) [Compound 19, 2-[(6-Bromo-2-hydroxynaphthalen-1-yl)methyl]-3-(4-chlorophenyl)-3-oxopropanamide] | 8.2 |  | 5 | 7.3 | 0 | 2.79 µM and 2.8 µM | 95 | 30 |  |  |  |  |  |  |  |  |  | 
NC(=O)C(Cc1c(O)ccc2cc(Br)ccc12)C(=O)c1ccc(Br)cc1 (stereo not shown) [Compound 22, 2-[(6-Bromo-2-hydroxynaphthalen-1-yl)methyl]-3-(4-bromo)-3-oxopropanamide] | 1.6 |  | 7 | 7.8 | 7 | 2.5 µM | 93 | 42 |  |  |  |  |  |  |  |  |  | 
CNC(=O)C(Cc1c(O)ccc2cc(Br)ccc12)C(=O)c1ccc(C(F)(F)F)cc1 (stereo not shown) [Compound 33, 2-[(6-Bromo-2-hydroxynaphthalen-1-yl)methyl]-N-methyl-3-oxo-3-[4-(trifluoromethyl)phenyl]propenamide] | 16.4 |  | 14.5 | 18.5 |  | 0.59 µM | 97 | 6 |  |  |  |  |  |  |  |  |  | 
NC(=O)CCNC(=O)C(Cc1c(O)ccc2cc(Br)ccc12)C(=O)c1cccc(Br)c1 (stereo not shown) [Compound 43, 2-[(6-Bromo-2-hydroxynaphthalen-1-yl)methyl]-3-(3-bromophenyl)-N-(2-carbamoylethyl)-3-oxopropanamide] |  |  | 15.8 | 19.4 | 0 | 0.96 µM | 89 | 20 |  |  |  |  |  |  |  |  |  | 
O=C(NCCO)C(Cc1c(O)ccc2cc(Br)ccc12)C(=O)c1ccc(Cl)cc1 (stereo not shown) [Compound 47, 2-[(6-Bromo-2-hydroxynaphthalen-1-yl)methyl]-3-(4-chlorophenyl)-N-(2-hydroxyethyl)-3-oxopropanamide] | 9.7 |  |  | 20.2 | 0 | 0.96 µM | 98 | 5 |  |  |  |  |  |  |  |  |  | 
O=C(NCCO)C(Cc1c(O)ccc2cc(Br)ccc12)C(=O)c1ccc(Br)cc1 (stereo not shown) [Compound 48, 2-[(6-Bromo-2-hydroxynaphthalen-1-yl)methyl]-3-(4-bromophenyl)-N-(2-hydroxyethyl)-3-oxopropanamide] | 5 |  | 10.5 | 10 | 18 | 0.52 µM | 96 | 29 | 11.8 | 14.7 | 11.8 | 15.8 |  |  |  |  |  | 
O=C(NCCO)C(Cc1c(O)ccc2cc(Br)ccc12)C(=O)c1ccc(C(F)(F)F)cc1 (stereo not shown) [Compound 49] | 13.1 |  | 12 | 16.5 | 15 | 0.27 µM | 99 | 27 | 20.2 | 23.5 | 18.4 | 15.7 | > 400 | > 800 |  |  |  | 
NC(=O)CCNC(=O)C(Cc1c(O)ccc2cc(Br)ccc12)C(=O)c1ccc(Cl)cc1 (stereo not shown) [Compound 50, 2-[(6-Bromo-2-hydroxynaphthalen-1-yl)methyl]-N-(2-carbamoylethyl)-3-(4-chlorophenyl)-3-oxopropanamide] | 11.7 |  |  | 19.9 | 4 | 0.65 µM | 99 | 17 |  |  |  |  |  |  |  |  |  | 
NC(=O)CCNC(=O)C(Cc1c(O)ccc2cc(Br)ccc12)C(=O)c1ccc(Br)cc1 (stereo not shown) [Compound 51, 2-[(6-Bromo-2-hydroxynaphthalen-1-yl)methyl]-3-(4-bromophenyl)-N-(2-carbamoylethyl)-3-oxopropanamide] | 10.2 |  | 19.2 | 16.7 | 20 | 0.58 µM | 98 | 14 |  |  |  | 25.9 |  |  |  |  |  | 
NC(=O)CCNC(=O)C(Cc1c(O)ccc2cc(Br)ccc12)C(=O)c1ccc(C(F)(F)F)cc1 (stereo not shown) [Compound 52, 2-[(6-Bromo-2-hydroxynaphthalen-1-yl)methyl]-N-(2-carbamoylethyl)-3-oxo-3-[4-(trifluoromethyl)phenyl]-propenamide] | 25.5 |  | 28.2 | 19.4 | 0 | 0.65 µM | 93 | 21 |  |  |  |  |  |  |  |  |  | 
CNC(=O)CCNC(=O)C(Cc1c(O)ccc2cc(Br)ccc12)C(=O)c1ccc(Cl)cc1 (stereo not shown) [Compound 54, 2-[(6-Bromo-2-hydroxynaphthalen-1-yl)methyl]-3-(4-chlorophenyl)-N-[2-(methylcarbamoyl)ethyl]-3-oxo-propanamide] | 11.2 |  | 15.8 | 18.5 | 12 | 0.59 µM | 99 | 6 | 18 | 23.8 | 16.5 | 17.3 |  |  |  |  |  | 
COc1cc([C@@H]2c3cc4c(cc3[C@@H](O[C@@H]3O[C@@H]5CO[C@@H](C)O[C@H]5[C@H](O)[C@H]3O)[C@H]3COC(=O)[C@H]23)OCO4)cc(OC)c1O [Etoposide, etoposide, reference compound] |  |  |  |  |  |  |  |  |  |  |  |  |  |  | 5.1 | 59.8 | 26.8 | 8.3
